The supplement of paper PMC10307832

Key:
Assay in all cases: relative viability (nuclei count vs DMSO), 5 days (fraction); higher = more cells survive
[1] = compound: C1=CC=C2C(=C1)N=C(S2)C(C#N)C3=NC(=NC=C3)NCCC4=CN=CC=C4 + Nc1nc2[nH]cc(CCc3ccc(C(=O)N[C@@H](CCC(=O)O)C(=O)O)cc3)c2c(=O)[nH]1 [Pemetrexed] (partner 0.2 µM)
Outline: (§1)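 Cells from lung cancer lines were seeded into 1536-well plates and, one day later, dosed by pin tool. Treatments were either a single drug or a fixed dose of an anchor drug with five library-drug doses (not always all listed) in √10 steps. After 5 days, nuclei were stained in a one-step fixation (final 0.05% Triton X-100, 1% formaldehyde, 1 ug/ml Hoechst) and counted on 4× images, and relative viability is the treated-to-vehicle nuclei ratio, as the median of duplicate plates.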

Vandetanib + AZD7762 = compound: COc1cc2/c(=N/c3ccc(Br)cc3F)nc[nH]c2cc1OCC1CCN(C)CC1 [Vandetanib] + NC(=O)Nc1cc(-c2cccc(F)c2)sc1C(=O)N[C@H]1CCCNC1 [AZD7762] (partner 0.2 µM)
Outline: as §1

CUDC-101 + Pemetrexed = compound: C#Cc1cccc(Nc2ncnc3cc(OC)c(OCCCCCCC(=O)NO)cc23)c1 [CUDC-101] + Nc1nc2[nH]cc(CCc3ccc(C(=O)N[C@@H](CCC(=O)O)C(=O)O)cc3)c2c(=O)[nH]1 [Pemetrexed] (partner 0.2 µM)
Outline: as §1

CUDC-101 + Lapatinib = compound: C#Cc1cccc(Nc2ncnc3cc(OC)c(OCCCCCCC(=O)NO)cc23)c1 [CUDC-101] + CS(=O)(=O)CCNCc1ccc(-c2ccc3ncnc(Nc4ccc(OCc5cccc(F)c5)c(Cl)c4)c3c2)o1 [Lapatinib] (partner 2 µM)
Outline: as §1

| Cell Line | relative viability ([1]; first compound 0.005 µM) | relative viability ([1]; first compound 0.01581 µM) | relative viability ([1]; first compound 0.05 µM) | relative viability ([1]; first compound 0.1581 µM) | relative viability ([1]; first compound 0.5 µM) | relative viability (Vandetanib + AZD7762; first compound 0.02 µM) | relative viability (Vandetanib + AZD7762; first compound 0.06325 µM) | relative viability (Vandetanib + AZD7762; first compound 0.2 µM) | relative viability (Vandetanib + AZD7762; first compound 0.6325 µM) | relative viability (Vandetanib + AZD7762; first compound 2 µM) | relative viability (CUDC-101 + Pemetrexed; first compound 0.01 µM) | relative viability (CUDC-101 + Pemetrexed; first compound 0.03162 µM) | relative viability (CUDC-101 + Pemetrexed; first compound 0.1 µM) | relative viability (CUDC-101 + Pemetrexed; first compound 0.3162 µM) | relative viability (CUDC-101 + Pemetrexed; first compound 1 µM) | relative viability (CUDC-101 + Lapatinib; first compound 0.01 µM) | relative viability (CUDC-101 + Lapatinib; first compound 0.03162 µM) | relative viability (CUDC-101 + Lapatinib; first compound 0.1 µM) | relative viability (CUDC-101 + Lapatinib; first compound 0.3162 µM) | relative viability (CUDC-101 + Lapatinib; first compound 1 µM) |
| --- | --- | --- | --- | --- | --- | --- | --- | --- | --- | --- | --- | --- | --- | --- | --- | --- | --- | --- | --- | --- |
| NCI-H1437 | 0.329 | 0.298 | 0.321 | 0.335 | 0.311 | 1.16 | 1.12 | 1.1 | 1.2 | 1.09 | 0.336 | 0.306 | 0.337 | 0.31 | 0.316 | 0.884 | 0.792 | 0.773 | 0.796 | 0.355 |
| NCI-H1651 | 0.41 | 0.527 | 0.597 | 0.708 | 0.381 | 0.431 | 0.425 | 0.462 | 0.442 | 0.486 | 0.614 | 0.579 | 0.579 | 0.577 | 0.523 | 0.869 | 0.813 | 0.884 | 0.771 | 0.325 |
| NCI-H1666 | 0.835 | 0.823 | 0.832 | 0.852 | 0.827 | 0.83 | 0.772 | 0.734 | 0.814 | 0.722 | 0.985 | 0.843 | 0.774 | 0.854 | 0.833 | 0.64 | 0.692 | 0.583 | 0.664 | 0.38 |
| NCI-H1734 | 0.412 | 0.405 | 0.416 | 0.434 | 0.418 | 0.554 | 0.511 | 0.557 | 0.517 | 0.545 | 0.414 | 0.407 | 0.392 | 0.465 | 0.39 | 1.1 | 0.988 | 1.07 | 1.09 | 0.841 |
| NCI-H1755 | 0.456 | 0.466 | 0.413 | 0.441 | 0.424 | 0.455 | 0.436 | 0.42 | 0.437 | 0.503 | 0.425 | 0.42 | 0.441 | 0.407 | 0.384 | 1.09 | 1.04 | 1.02 | 1.1 | 0.798 |
| NCI-H1792 |  | 0.889 | 0.875 | 1.22 | 0.335 | 0.654 | 0.656 | 0.607 | 0.5 | 0.673 | 0.856 | 0.787 | 0.915 | 0.721 | 0.581 | 0.91 | 0.883 | 0.877 | 0.913 | 0.825 |
| NCI-H1793 |  | 0.799 | 0.851 | 1.07 | 1.1 | 0.514 | 0.409 | 0.331 | 0.286 | 0.397 | 0.75 | 0.777 | 0.663 | 0.889 | 0.494 | 0.813 | 0.63 | 0.731 | 0.718 | 0.485 |
| NCI-H1915 |  | 0.506 | 0.434 | 0.563 | 0.481 | 0.696 | 0.664 | 0.693 | 0.612 | 0.719 | 0.495 | 0.45 | 0.45 | 0.497 | 0.455 | 1.02 | 1.04 | 0.977 | 0.911 | 0.837 |
| NCI-H1944 | 0.605 | 0.665 | 0.66 | 0.558 | 0.576 | 0.489 | 0.611 | 0.555 | 0.462 | 0.471 | 0.62 | 0.615 | 0.597 | 0.582 | 0.43 | 0.777 | 0.747 | 0.799 | 0.709 | 0.5 |
| NCI-H1975 | 0.286 | 0.303 | 0.295 | 0.331 | 0.26 | 0.701 | 0.663 | 0.645 | 0.687 | 0.617 | 0.27 | 0.283 | 0.296 | 0.277 | 0.313 | 1.02 | 0.913 | 0.844 | 0.82 | 0.411 |
| NCI-H1993 | 0.53 | 0.627 | 0.555 | 0.728 | 0.542 | 0.737 | 0.74 | 0.861 | 0.78 | 0.555 | 0.586 | 0.616 | 0.637 | 0.606 | 0.517 | 0.758 | 0.899 | 1.03 | 0.995 | 0.635 |
| NCI-H2085 | 0.763 | 0.785 | 0.843 | 0.851 | 0.89 | 0.941 | 0.944 | 0.951 | 0.857 | 0.946 | 0.779 | 0.665 | 0.89 | 0.959 | 0.63 | 0.817 | 0.686 | 0.826 | 0.752 | 0.502 |
| NCI-H2087 | 0.616 | 0.661 | 0.634 | 0.645 | 0.645 | 1.38 | 1.23 | 1.54 | 1.4 | 1.49 | 0.681 | 0.699 | 0.648 | 0.605 | 0.678 | 0.986 | 1.37 | 1.04 | 1.04 | 0.761 |
| NCI-H2126 | 0.577 | 0.73 | 0.652 | 0.69 | 0.726 | 1.03 | 0.938 | 1.01 | 0.971 | 1 | 0.635 | 0.659 | 0.761 | 0.687 | 0.529 | 0.764 | 0.785 | 0.758 | 0.803 | 0.635 |
| NCI-H2170 | 0.275 | 0.26 | 0.27 | 0.27 | 0.274 | 0.822 | 0.8 | 0.893 | 0.781 | 0.835 | 0.281 | 0.257 | 0.24 | 0.234 | 0.254 | 0.27 | 0.266 | 0.297 | 0.227 | 0.232 |
| NCI-H2347 | 0.405 | 0.515 | 0.471 | 0.409 | 0.461 | 0.764 | 0.657 | 0.788 | 0.778 | 0.689 | 0.458 | 0.418 | 0.434 | 0.479 | 0.405 | 1.08 | 0.918 | 1.03 | 1.05 | 0.91 |
